According to the supplement of paper PMC10307832:

Columns and labels:
Assay in all cases: relative viability (nuclei count vs DMSO), 5 days (fraction); higher = more cells survive
PC-14 = system: PC-14
How it was run: (§1)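 Lung cancer cell lines in 1536-well plates got either a single drug or a fixed anchor-drug dose together with five library-drug doses (not always all listed) in √10 steps, by pin tool, on the day after seeding. Nuclei were counted after 5 days, and relative viability is the treated-to-vehicle ratio of nuclei counts. Values are medians of duplicate plates.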

NCI-H2405 = system: NCI-H2405
How it was run: as §1

NCI-H23 = system: NCI-H23
How it was run: as §1

H3255 = system: H3255
How it was run: as §1

NCI-H647 = system: NCI-H647
How it was run: as §1

NCI-H650 = system: NCI-H650
How it was run: as §1

EPLC-272H = system: EPLC-272H
How it was run: as §1

HCC-827 = system: HCC-827
How it was run: as §1

NCI-H2126 = system: NCI-H2126
How it was run: as §1

NCI-H2087 = system: NCI-H2087
How it was run: as §1

LC-2-ad = system: LC-2-ad
How it was run: as §1

NCI-H661 = system: NCI-H661
How it was run: as §1

NCI-H1666 = system: NCI-H1666
How it was run: as §1

ChaGo-K-1 = system: ChaGo-K-1
How it was run: as §1

NCI-H520 = system: NCI-H520
How it was run: as §1

NCI-H2347 = system: NCI-H2347
How it was run: as §1

HCC-78 = system: HCC-78
How it was run: as §1

RERF-LC-KJ = system: RERF-LC-KJ
How it was run: as §1

201T = system: 201T
How it was run: as §1

NCI-H1915 = system: NCI-H1915
How it was run: as §1

LCLC-97TM1 = system: LCLC-97TM1
How it was run: as §1

COR-L 105 = system: COR-L 105
How it was run: as §1

Nc1ccn([C@@H]2O[C@H](CO)[C@@H](O)[C@@H]2O)c(=O)n1 [Cytarabine] + CC(C)C[C@H](NC(=O)[C@H](Cc1ccccc1)NC(=O)c1cnccn1)B(O)O [Bortezomib] (partner 0.002 µM)
relative viability (PC-14; first compound 0.005 µM): 0.872 | relative viability (PC-14; first compound 0.01581 µM): 0.88 | relative viability (PC-14; first compound 0.05 µM): 0.641 | relative viability (PC-14; first compound 0.1581 µM): 0.326 | relative viability (PC-14; first compound 0.5 µM): 0.268 | relative viability (NCI-H2405; first compound 0.005 µM): 0.911 | relative viability (NCI-H2405; first compound 0.01581 µM): 0.694 | relative viability (NCI-H2405; first compound 0.05 µM): 0.662 | relative viability (NCI-H2405; first compound 0.1581 µM): 0.943 | relative viability (NCI-H2405; first compound 0.5 µM): 1.03 | relative viability (NCI-H23; first compound 0.005 µM): 0.743 | relative viability (NCI-H23; first compound 0.01581 µM): 0.656 | relative viability (NCI-H23; first compound 0.05 µM): 0.559 | relative viability (NCI-H23; first compound 0.1581 µM): 0.24 | relative viability (NCI-H23; first compound 0.5 µM): 0.214 | relative viability (H3255; first compound 0.005 µM): 0.745 | relative viability (H3255; first compound 0.01581 µM): 0.797 | relative viability (H3255; first compound 0.05 µM): 0.575 | relative viability (H3255; first compound 0.1581 µM): 0.517 | relative viability (H3255; first compound 0.5 µM): 0.468 | relative viability (NCI-H647; first compound 0.005 µM): 0.695 | relative viability (NCI-H647; first compound 0.01581 µM): 0.423 | relative viability (NCI-H647; first compound 0.05 µM): 0.513 | relative viability (NCI-H647; first compound 0.1581 µM): 0.113 | relative viability (NCI-H647; first compound 0.5 µM): 0.081 | relative viability (NCI-H650; first compound 0.005 µM): 0.606 | relative viability (NCI-H650; first compound 0.01581 µM): 0.486 | relative viability (NCI-H650; first compound 0.05 µM): 0.349 | relative viability (NCI-H650; first compound 0.1581 µM): 0.223 | relative viability (NCI-H650; first compound 0.5 µM): 0.209 | relative viability (EPLC-272H; first compound 0.005 µM): 0.906 | relative viability (EPLC-272H; first compound 0.01581 µM): 0.831 | relative viability (EPLC-272H; first compound 0.05 µM): 0.53 | relative viability (EPLC-272H; first compound 0.1581 µM): 0.412 | relative viability (EPLC-272H; first compound 0.5 µM): 0.453 | relative viability (HCC-827; first compound 0.005 µM): 0.996 | relative viability (HCC-827; first compound 0.01581 µM): 0.674 | relative viability (HCC-827; first compound 0.05 µM): 0.474 | relative viability (HCC-827; first compound 0.1581 µM): 0.459 | relative viability (HCC-827; first compound 0.5 µM): 0.329 | relative viability (NCI-H2126; first compound 0.005 µM): 1.08 | relative viability (NCI-H2126; first compound 0.01581 µM): 1.07 | relative viability (NCI-H2126; first compound 0.05 µM): 1.09 | relative viability (NCI-H2126; first compound 0.1581 µM): 0.703 | relative viability (NCI-H2126; first compound 0.5 µM): 0.699 | relative viability (NCI-H2087; first compound 0.005 µM): 0.631 | relative viability (NCI-H2087; first compound 0.01581 µM): 1.01 | relative viability (NCI-H2087; first compound 0.05 µM): 0.84 | relative viability (NCI-H2087; first compound 0.1581 µM): 0.573 | relative viability (NCI-H2087; first compound 0.5 µM): 0.338 | relative viability (LC-2-ad; first compound 0.005 µM): 1.01 | relative viability (LC-2-ad; first compound 0.01581 µM): 0.888 | relative viability (LC-2-ad; first compound 0.05 µM): 0.954 | relative viability (LC-2-ad; first compound 0.1581 µM): 0.434 | relative viability (LC-2-ad; first compound 0.5 µM): 0.145 | relative viability (NCI-H661; first compound 0.005 µM): 0.997 | relative viability (NCI-H661; first compound 0.01581 µM): 0.667 | relative viability (NCI-H661; first compound 0.05 µM): 0.596 | relative viability (NCI-H661; first compound 0.1581 µM): 0.381 | relative viability (NCI-H661; first compound 0.5 µM): 0.246 | relative viability (NCI-H1666; first compound 0.005 µM): 0.7 | relative viability (NCI-H1666; first compound 0.01581 µM): 0.705 | relative viability (NCI-H1666; first compound 0.05 µM): 0.741 | relative viability (NCI-H1666; first compound 0.1581 µM): 0.353 | relative viability (NCI-H1666; first compound 0.5 µM): 0.318 | relative viability (ChaGo-K-1; first compound 0.005 µM): 0.707 | relative viability (ChaGo-K-1; first compound 0.01581 µM): 0.559 | relative viability (ChaGo-K-1; first compound 0.05 µM): 0.443 | relative viability (ChaGo-K-1; first compound 0.1581 µM): 0.437 | relative viability (ChaGo-K-1; first compound 0.5 µM): 0.499 | relative viability (NCI-H520; first compound 0.005 µM): 0.412 | relative viability (NCI-H520; first compound 0.01581 µM): 0.363 | relative viability (NCI-H520; first compound 0.05 µM): 0.697 | relative viability (NCI-H520; first compound 0.1581 µM): 0.468 | relative viability (NCI-H520; first compound 0.5 µM): 0.34 | relative viability (NCI-H2347; first compound 0.005 µM): 1.22 | relative viability (NCI-H2347; first compound 0.01581 µM): 0.951 | relative viability (NCI-H2347; first compound 0.05 µM): 0.546 | relative viability (NCI-H2347; first compound 0.1581 µM): 0.61 | relative viability (NCI-H2347; first compound 0.5 µM): 0.667 | relative viability (HCC-78; first compound 0.005 µM): 0.569 | relative viability (HCC-78; first compound 0.01581 µM): 0.444 | relative viability (HCC-78; first compound 0.05 µM): 0.445 | relative viability (HCC-78; first compound 0.1581 µM): 0.378 | relative viability (HCC-78; first compound 0.5 µM): 0.252 | relative viability (RERF-LC-KJ; first compound 0.005 µM): 1.01 | relative viability (RERF-LC-KJ; first compound 0.01581 µM): 0.91 | relative viability (RERF-LC-KJ; first compound 0.05 µM): 0.974 | relative viability (RERF-LC-KJ; first compound 0.1581 µM): 0.68 | relative viability (RERF-LC-KJ; first compound 0.5 µM): 0.472 | relative viability (201T; first compound 0.005 µM): 1.07 | relative viability (201T; first compound 0.01581 µM): 1.11 | relative viability (201T; first compound 0.05 µM): 0.866 | relative viability (201T; first compound 0.1581 µM): 1.01 | relative viability (201T; first compound 0.5 µM): 1 | relative viability (NCI-H1915; first compound 0.005 µM): 0.74 | relative viability (NCI-H1915; first compound 0.01581 µM): 0.952 | relative viability (NCI-H1915; first compound 0.05 µM): 0.8 | relative viability (NCI-H1915; first compound 0.1581 µM): 0.385 | relative viability (NCI-H1915; first compound 0.5 µM): 0.25 | relative viability (LCLC-97TM1; first compound 0.005 µM): 0.277 | relative viability (LCLC-97TM1; first compound 0.01581 µM): 0.349 | relative viability (LCLC-97TM1; first compound 0.05 µM): 0.132 | relative viability (LCLC-97TM1; first compound 0.1581 µM): 0.084 | relative viability (LCLC-97TM1; first compound 0.5 µM): 0.0888 | relative viability (COR-L 105; first compound 0.005 µM): 0.676 | relative viability (COR-L 105; first compound 0.01581 µM): 0.699 | relative viability (COR-L 105; first compound 0.05 µM): 0.464 | relative viability (COR-L 105; first compound 0.1581 µM): 0.399 | relative viability (COR-L 105; first compound 0.5 µM): 0.285
